Molecules are shown by their SMILES.

T1 sequence (P35462 whole entry): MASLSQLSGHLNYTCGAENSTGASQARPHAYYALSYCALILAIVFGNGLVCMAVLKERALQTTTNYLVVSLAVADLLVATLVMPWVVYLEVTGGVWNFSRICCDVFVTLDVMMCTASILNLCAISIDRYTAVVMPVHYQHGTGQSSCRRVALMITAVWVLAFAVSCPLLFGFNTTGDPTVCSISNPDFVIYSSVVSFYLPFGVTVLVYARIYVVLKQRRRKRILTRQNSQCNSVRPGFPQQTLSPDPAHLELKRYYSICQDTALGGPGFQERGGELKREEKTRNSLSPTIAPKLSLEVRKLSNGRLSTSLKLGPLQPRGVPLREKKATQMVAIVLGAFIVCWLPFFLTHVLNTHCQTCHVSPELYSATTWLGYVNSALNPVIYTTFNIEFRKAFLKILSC

One assay addresses T1, Cloned Human Dopamine D3 Receptors (Homo sapiens, UniProt P35462).
T1 construct: expressed in transfected cells; membrane homogenate
Nature of the assay: [N-Methyl-3H]Spiroperidol binding to cloned human dopamine D3 receptors. The note with it: D3 Ki (nM). The gist of the method:
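Membranes from CHO cells stably expressing human D3 receptor, homogenised in 10% DMSO and stored at -80°C. Binding uses [N-methyl-3H]spiroperidol in Tris buffer, pH 7.7.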
`CCC1CCC(NC(=O)C2CC2CN2CCC(c3nn(-c4ccc(C(F)(F)F)cc4)c4ccccc34)CC2)CC1` (centres unmarked) [compound 830133]: the Ki came out at 176 nM.

`C[C@H]1CC[C@H](NC(=O)[C@@H]2C[C@H]2CN2CCN(c3noc4ccsc34)CC2)CC1` [compound 831083]: the Ki stood at 3.2 nM.

For `O=C(NCCCn1ccnc1)[C@@H]1C[C@H]1CN1CCC(c2nn(-c3ccc(C(F)(F)F)cc3)c3ccccc23)CC1` [compound 831311], the Ki turned out to be 38.7 nM.

`Cn1nc(N2CCN(CC3CC3C(=O)NCCCn3ccnc3)CC2)c2sccc21` (centres unmarked) [compound 831673] registered a Ki of 23.5 nM.

Compound `O=C(NC1CCN(CC2CCCCC2)CC1)C1CC1CN1CCC(c2noc3ccsc23)CC1` (centres unmarked) [compound 831823] had a Ki of 2.37 nM.

As to `COc1ccccc1CN1CCC(NC(=O)C2CC2CN2CCC(c3noc4ccsc34)CC2)CC1` (centres unmarked) [compound 831991], the Ki was found to be 0.722 nM.

Still in this assay, the particulars now being: Table 2; unit inferred; read-out: d3Ki.
With `CC1CCC(NC(=O)C2CC2CN2CCN(c3ccc(F)cc3)CC2)CC1` (centres unmarked) [compound 827196], the Ki was determined as 2.35 nM.

Take `C[C@H]1CC[C@H](NC(=O)[C@@H]2C[C@H]2CN2CCN(CCc3ccccc3)CC2)CC1` [compound 827198]: the Ki was 161 nM.

As to `C[C@H]1CC[C@H](NC(=O)[C@@H]2C[C@H]2CN2CCN(Cc3ccc4c(c3)OCO4)CC2)CC1` [compound 827201], the Ki turned out to be 126 nM.

For `C[C@H]1CC[C@H](NC(=O)[C@@H]2C[C@H]2CN2CCN(c3cccc4cccnc34)CC2)CC1` [compound 827253], the Ki was 15.8 nM.

Regarding `Cc1ccc(N2CCCN(C[C@@H]3C[C@H]3C(=O)N[C@H]3CC[C@H](C)CC3)CC2)nc1` [compound 827731], the Ki amounted to 19.5 nM.

Regarding `CC[C@H]1CC[C@H](NC(=O)[C@@H]2C[C@H]2CN2CCCN(c3ccc(C)cn3)CC2)CC1` [compound 827732], the Ki came out at 10.5 nM.

With `CC[C@H]1CC[C@H](NC(=O)[C@@H]2C[C@H]2CN2CCCN(c3ncccc3Cl)CC2)CC1` [compound 827733], the Ki was 1.19 nM.

Consider `CCC1CCC(NC(=O)C2CC2CN2CCCN(c3ccccn3)CC2)CC1` (centres unmarked) [compound 827800], for which the Ki is 19.7 nM.

Staying with this assay, now noted: read-out: D3 Ki.
As for `CC[C@H]1CC[C@H](NC(=O)[C@@H]2C[C@H]2CN2CCN(c3cnccn3)CC2)CC1` [compound 827226], the Ki turned out to be 16.1 nM.

Take `CC[C@H]1CC[C@H](NC(=O)[C@@H]2C[C@H]2CN2CCN(c3cccc(C(F)(F)F)c3)CC2)CC1` [compound 827229]: the Ki is 1.71 nM.

`O=C([C@@H]1C[C@H]1CN1CCC(c2noc3ccsc23)CC1)N1CCOCC1` [compound 829461]: the Ki was determined as 306 nM.

As to `CN(CCc1ccccn1)C(=O)C1CC1CN1CCC(c2noc3ccsc23)CC1` (centres unmarked) [compound 829593], the Ki worked out at 350 nM.

For the compound `CCC1CCC(NC(=O)C2CC2CN2CCCN(c3ccc4c(C#N)n[nH]c4n3)CC2)CC1` (centres unmarked) [compound 830122], the Ki was found to be 67.6 nM.

Regarding `O=C(NCCCN1CCOCC1)[C@@H]1C[C@H]1CN1CCC(c2noc3ccsc23)CC1` [compound 831046], the Ki was determined as 15.5 nM.

On to `CN(C)CCCNC(=O)[C@@H]1C[C@H]1CN1CCC(c2noc3ccsc23)CC1` [compound 831048], for which the Ki was 11.3 nM.

Take `O=C(NCCCc1ccncc1)[C@@H]1C[C@H]1CN1CCC(c2noc3ccsc23)CC1` [compound 831197]: the Ki was determined as 4.17 nM.

With `O=C(NCCCn1cccn1)[C@@H]1C[C@H]1CN1CCC(c2noc3ccsc23)CC1` [compound 831273], the Ki worked out at 68.6 nM.

Consider `COc1ccc2[nH]cc(CCNC(=O)[C@@H]3C[C@H]3CN3CCC(c4noc5ccsc45)CC3)c2c1` [compound 831275], for which the Ki is 5.15 nM.

With `COc1ccc2c(CCNC(=O)[C@@H]3C[C@H]3CN3CCC(c4noc5ccsc45)CC3)c[nH]c2c1` [compound 831276], the Ki turned out to be 3.85 nM.

For `O=C(NCCCc1ccccc1)[C@@H]1C[C@H]1CN1CCC(c2cc3ccccc3s2)CC1` [compound 831489], the Ki is 16.9 nM.

In the case of `O=C(NCCCn1ccnc1)[C@@H]1C[C@H]1CN1CCN(c2noc3ccsc23)CC1` [compound 831493, 2R-(4-Thieno[2,3-d]isoxazol-3-yl-piperazin-1-ylmethyl)-1 R-cyclopropanecarboxylic acid (3-imidazol-1-yl-propyl)-amide], the Ki turned out to be 4.95 nM.

For the compound `O=C(NCCCc1ccccc1)[C@@H]1C[C@H]1CN1CCN(c2noc3ccsc23)CC1` [compound 831494], the Ki was 28.3 nM.

Turning to `COc1cccc2c(C3CCN(C[C@@H]4C[C@H]4C(=O)N4CCC(Oc5ccc(F)cc5)CC4)CC3)noc12` [compound 831878], the Ki was 189 nM.

Regarding `COc1ccc2c(c1)c(N1CCN(C[C@@H]3C[C@H]3C(=O)N[C@H]3CC[C@H](O)CC3)CC1)nn2-c1ccc(C(F)(F)F)cc1` [compound 831949], the Ki turned out to be 29 nM.

For `O=C(NC1CCC(O)CC1)C1CC1CN1CCN(c2noc3ccsc23)CC1` (centres unmarked) [compound 831955], the Ki was determined as 47.3 nM.

In the case of `O=C(C1CC1CN1CCC(c2noc3ccsc23)CC1)N1CCN(CCc2ccccn2)CC1` (centres unmarked) [compound 832001], the Ki was found to be 157 nM.

In the case of `Cc1nc(N)sc1CCNC(=O)C1CC1CN1CCC(c2noc3ccsc23)CC1` (centres unmarked) [compound 832045], the Ki worked out at 22 nM.

The assay is the same for the next values; noted with them: read-out: d3Ki.
Take `C[C@H]1CC[C@H](NC(=O)[C@@H]2C[C@H]2CN2CCN(c3cnccn3)CC2)CC1` [compound 827187]: the Ki was determined as 10.6 nM.

Regarding `C[C@H]1CC[C@H](NC(=O)[C@@H]2C[C@H]2CN2CCN(c3ccco3)CC2)CC1` [compound 827189], the Ki stood at 126 nM.

As to `C[C@H]1CC[C@H](NC(=O)[C@@H]2C[C@H]2CN2CCN(c3cccc(C(F)(F)F)c3)CC2)CC1` [compound 827190], the Ki was 2.42 nM.

For `C[C@H]1CC[C@H](NC(=O)[C@@H]2C[C@H]2CN2CCN(c3ccccc3)CC2)CC1` [compound 827191], the Ki came to 0.724 nM.

For the compound `Cc1ccc(N2CCN(C[C@@H]3C[C@H]3C(=O)N[C@H]3CC[C@H](C)CC3)CC2)c(C)c1` [compound 827193], the Ki turned out to be 40.6 nM.

On to `COc1ccc(N2CCN(C[C@@H]3C[C@H]3C(=O)N[C@H]3CC[C@H](C)CC3)CC2)cc1` [compound 827194], for which the Ki amounted to 24.4 nM.

As for `COc1cccc(N2CCN(C[C@@H]3C[C@H]3C(=O)N[C@H]3CC[C@H](C)CC3)CC2)c1` [compound 827195], the Ki was 8.18 nM.

On to `CC1CCC(NC(=O)C2CC2CN2CCN(c3ncccn3)CC2)CC1` (centres unmarked) [compound 827197], for which the Ki was found to be 27.6 nM.

With `C[C@H]1CC[C@H](NC(=O)[C@@H]2C[C@H]2CN2CCN(c3ccc(Cl)c(C(F)(F)F)c3)CC2)CC1` [compound 827199], the Ki was 4.34 nM.

Turning to `Cc1cccc(C)c1N1CCN(C[C@@H]2C[C@H]2C(=O)N[C@H]2CC[C@H](C)CC2)CC1` [compound 827200], the Ki was found to be 119 nM.

As to `C[C@H]1CC[C@H](NC(=O)[C@@H]2C[C@H]2CN2CCN(c3ccc([N+](=O)[O-])cc3)CC2)CC1` [compound 827205], the Ki came out at 200 nM.

As for `CC(=O)c1ccc(N2CCN(C[C@@H]3C[C@H]3C(=O)N[C@H]3CC[C@H](C)CC3)CC2)cc1` [compound 827206], the Ki came to 59.7 nM.

With `CC[C@H]1CC[C@H](NC(=O)[C@@H]2C[C@H]2CN2CCN(c3cccc(Cl)c3)CC2)CC1` [compound 827212], the Ki was found to be 1.2 nM.

Consider `CC[C@H]1CC[C@H](NC(=O)[C@@H]2C[C@H]2CN2CCN(c3ccc(C)cc3)CC2)CC1` [compound 827213], for which the Ki was found to be 11.1 nM.

Consider `CC[C@H]1CC[C@H](NC(=O)[C@@H]2C[C@H]2CN2CCN(c3ccccn3)CC2)CC1` [compound 827214], for which the Ki is 6.13 nM.

As for `CCOc1ccccc1N1CCN(C[C@@H]2C[C@H]2C(=O)N[C@H]2CC[C@H](CC)CC2)CC1` [compound 827215], the Ki stood at 0.229 nM.

With `CC[C@H]1CC[C@H](NC(=O)[C@@H]2C[C@H]2CN2CCN(c3ccccc3Cl)CC2)CC1` [compound 827216], the Ki came to 2.16 nM.

For the compound `CC[C@H]1CC[C@H](NC(=O)[C@@H]2C[C@H]2CN2CCN(c3ccccc3OC)CC2)CC1` [compound 827218], the Ki worked out at 1.22 nM.

Consider `CC[C@H]1CC[C@H](NC(=O)[C@@H]2C[C@H]2CN2CCN(c3cccc(C)c3)CC2)CC1` [compound 827219], for which the Ki turned out to be 2.63 nM.

On to `CC[C@H]1CC[C@H](NC(=O)[C@@H]2C[C@H]2CN2CCN(c3ccc(C(F)(F)F)cn3)CC2)CC1` [compound 827221], for which the Ki came to 99.2 nM.

For the compound `CC[C@H]1CC[C@H](NC(=O)[C@@H]2C[C@H]2CN2CCN(c3cnccn3)CC2)CC1` [compound 827226], the Ki came to 16.1 nM.

Consider `CC[C@H]1CC[C@H](NC(=O)[C@@H]2C[C@H]2CN2CCN(C(=O)c3ccco3)CC2)CC1` [compound 827228], for which the Ki was determined as 62 nM.

For `CC[C@H]1CC[C@H](NC(=O)[C@@H]2C[C@H]2CN2CCN(c3cccc(C(F)(F)F)c3)CC2)CC1` [compound 827229], the Ki is 1.71 nM.

`CC[C@H]1CC[C@H](NC(=O)[C@@H]2C[C@H]2CN2CCN(c3ccccc3)CC2)CC1` [compound 827230]: the Ki is 2.09 nM.

As to `CC[C@H]1CC[C@H](NC(=O)[C@@H]2C[C@H]2CN2CCN(c3ccc(OC)cc3)CC2)CC1` [compound 827233], the Ki stood at 27.7 nM.

`CC[C@H]1CC[C@H](NC(=O)[C@@H]2C[C@H]2CN2CCN(c3cccc(OC)c3)CC2)CC1` [compound 827234]: the Ki came to 3.15 nM.

`CC[C@H]1CC[C@H](NC(=O)[C@@H]2C[C@H]2CN2CCN(c3ccc(F)cc3)CC2)CC1` [compound 827235]: the Ki came to 4.49 nM.

Turning to `CC[C@H]1CC[C@H](NC(=O)[C@@H]2C[C@H]2CN2CCN(c3ncccn3)CC2)CC1` [compound 827236], the Ki was 12.9 nM.

With `CC[C@H]1CC[C@H](NC(=O)[C@@H]2C[C@H]2CN2CCN(c3ccc(Cl)c(C(F)(F)F)c3)CC2)CC1` [compound 827238], the Ki turned out to be 2.48 nM.

Turning to `CC[C@H]1CC[C@H](NC(=O)[C@@H]2C[C@H]2CN2CCN(c3ccc([N+](=O)[O-])cc3)CC2)CC1` [compound 827244], the Ki turned out to be 197 nM.

Regarding `CC[C@H]1CC[C@H](NC(=O)[C@@H]2C[C@H]2CN2CCN(c3ccc(C(C)=O)cc3)CC2)CC1` [compound 827245], the Ki amounted to 43 nM.

As to `CC[C@H]1CC[C@H](NC(=O)[C@@H]2C[C@H]2CN2CCN(c3ccc(Cl)c(Cl)c3)CC2)CC1` [compound 828393], the Ki was 3.45 nM.
